Experimental data published in patent US20170189504A1, “NOVEL PEPTIDES AND COMBINATION OF PEPTIDES FOR USE IN IMMUNOTHERAPY AGAINST VARIOUS CANCERS” (immatics biotechnologies GmbH, priority 2015, published 2017).

Each substance was assayed on HLA-A*02 (assay: MHC binding assay, UV-ligand exchange with β2m ELISA, HLA-A*02 (Table 20)). Conditions: binding to HLA-A*02 ranged by peptide exchange yield (UV-ligand exchange, β2m ELISA).
Design: species or system human
From the text: Candidate peptides for T cell based therapies according to the present invention were further tested for their MHC binding capacity (affinity). The individual peptide-MHC complexes were produced by UV-ligand exchange, where a UV-sensitive peptide is cleaved upon UV-irradiation, and exchanged with the peptide of interest as analyzed. Only peptide candidates that can effectively bind and stabilize the peptide-receptive MHC molecules prevent dissociation of the MHC complexes. To determine the yield of the exchange reaction, an ELISA was performed based on the detection of the light chain ((β2m) of stabilized MHC complexes. The assay was performed as generally described in Rodenko et al. (Rodenko et al., 2006).
96 well MAXISorp plates (NUNC) were coated over night with 2 ug/ml streptavidin in PBS at room temperature, washed 4× and blocked for 1 h at 37° C. in 2% BSA containing blocking buffer. Refolded HLA-A*02:01/MLA-001 monomers served as standards, covering the range of 15-500 ng/ml. Peptide-MHC monomers of the UV-exchange reaction were diluted 100 fold in blocking buffer. Samples were incubated for 1 h at 37° C., washed four times, incubated with 2 ug/ml HRP conjugated anti-β2m for 1 h at 37° C., washed again and detected with TMB solution that is stopped with […]. Absorption was measured at 450 nm. Candidate peptides that show a high exchange yield (preferably higher than 50%, most preferred higher than 75%) are generally preferred for a generation and production of antibodies or fragments thereof, and/or T cell receptors or fragments thereof, as they show sufficient avidity to the MHC molecules and prevent dissociation of the MHC complexes.

Row | Peptide exchange | Substance
1 | +++ (50%-75% = +++) | 24 (TLDEKVAEL; listed as Homo sapiens) [compound 24]
2 | +++ (50%-75% = +++) | 21 (AIQDEIRSV; listed as Homo sapiens) [compound 21]
3 | +++ (50%-75% = +++) | 240 (YMGEEKLIASV; listed as Homo sapiens) [compound 240]
4 | ++++ (≧75% = ++++) | 112 (SLGKFTFDV; listed as Homo sapiens) [compound 112]
5 | +++ (50%-75% = +++) | 33 (YIKTELISV; listed as Homo sapiens) [compound 33]
6 | ++ (20%-49% = ++) | 241 (KTIQQLETV; listed as Homo sapiens) [compound 241]
7 | +++ (50%-75% = +++) | 107 (LLVPTSGIYFV; listed as Homo sapiens) [compound 107]
8 | +++ (50%-75% = +++) | 102 (VLLDIQEVFQI; listed as Homo sapiens) [compound 102]
9 | +++ (50%-75% = +++) | 53 (KMVGLVVAI; listed as Homo sapiens) [compound 53]
10 | +++ (50%-75% = +++) | 264 (KLFPQETLFL; listed as Homo sapiens) [compound 264]
11 | ++ (20%-49% = ++) | 83 (GQASYFYVA; listed as Homo sapiens) [compound 83]
12 | ++ (20%-49% = ++) | 244 (YLLEKNRVV; listed as Homo sapiens) [compound 244]
13 | ++ (20%-49% = ++) | 122 (GVVDPVHGV; listed as Homo sapiens) [compound 122]
14 | ++ (20%-49% = ++) | 76 (AVGPVHNSV; listed as Homo sapiens) [compound 76]
15 | +++ (50%-75% = +++) | 266 (YAIGLVMRL; listed as Homo sapiens) [compound 266]
16 | +++ (50%-75% = +++) | 121 (FTIFRTISV; listed as Homo sapiens) [compound 121]
17 | +++ (50%-75% = +++) | 243 (FMADDIFSV; listed as Homo sapiens) [compound 243]
18 | +++ (50%-75% = +++) | 74 (TLFGYSVVL; listed as Homo sapiens) [compound 74]
19 | ++ (20%-49% = ++) | 115 (SLDPDTLPAV; listed as Homo sapiens) [compound 115]
20 | ++++ (≧75% = ++++) | 16 (YTLDIPVLFGV; listed as Homo sapiens) [compound 16]
21 | ++++ (≧75% = ++++) | 125 (SLADYEHFV; listed as Homo sapiens) [compound 125]
22 | ++ (20%-49% = ++) | 48 (QVIEDSTGV; listed as Homo sapiens) [compound 48]
23 | +++ (50%-75% = +++) | 236 (STIAILNSV; listed as Homo sapiens) [compound 236]
24 | +++ (50%-75% = +++) | 234 (LLSPHNPAL; listed as Homo sapiens) [compound 234]
25 | +++ (50%-75% = +++) | 252 (RLMEICESL; listed as Homo sapiens) [compound 252]

Row | Peptide exchange | Substance
26 | ++++ (≧75% = ++++) | 3 (KLEENGDLYL; listed as Homo sapiens) [compound 3]
27 | +++ (50%-75% = +++) | 45 (SLTEVSLPL; listed as Homo sapiens) [compound 45]
28 | +++ (50%-75% = +++) | 110 (FLLGVSKEV; listed as Homo sapiens) [compound 110]
29 | +++ (50%-75% = +++) | 131 (VTSNSGILGV; listed as Homo sapiens) [compound 131]
30 | +++ (50%-75% = +++) | 9 (FLVDGSYSI; listed as Homo sapiens) [compound 9]
31 | +++ (50%-75% = +++) | 145 (YLWATIQRI; listed as Homo sapiens) [compound 145]
32 | ++ (20%-49% = ++) | 99 (YLLQSVNQLLL; listed as Homo sapiens) [compound 99]
33 | +++ (50%-75% = +++) | 49 (ALNIATHVL; listed as Homo sapiens) [compound 49]
34 | +++ (50%-75% = +++) | 56 (FLHDEKEGIYI; listed as Homo sapiens) [compound 56]
35 | +++ (50%-75% = +++) | 38 (FLGPRIIGL; listed as Homo sapiens) [compound 38]
36 | +++ (50%-75% = +++) | 105 (ALLGTKILL; listed as Homo sapiens) [compound 105]
37 | ++++ (≧75% = ++++) | 34 (FLLATEVVTV; listed as Homo sapiens) [compound 34]
38 | + (<20% = +) | 100 (ALLGMIIVGV; listed as Homo sapiens) [compound 100]
39 | ++ (20%-49% = ++) | 111 (AIVDLIHDI; listed as Homo sapiens) [compound 111]
40 | +++ (50%-75% = +++) | 15 (YLDLSHNQL; listed as Homo sapiens) [compound 15]
41 | ++ (20%-49% = ++) | 123 (VLDPALPALV; listed as Homo sapiens) [compound 123]
42 | ++ (20%-49% = ++) | 65 (SVVPDVRSV; listed as Homo sapiens) [compound 65]
43 | ++++ (≧75% = ++++) | 126 (QMFQYFITV; listed as Homo sapiens) [compound 126]
44 | +++ (50%-75% = +++) | 85 (VLNDILVRA; listed as Homo sapiens) [compound 85]
45 | +++ (50%-75% = +++) | 10 (GIAGSLKTV; listed as Homo sapiens) [compound 10]
46 | +++ (50%-75% = +++) | 246 (TVSDVLNSV; listed as Homo sapiens) [compound 246]
47 | ++ (20%-49% = ++) | 108 (ILLKNLVTI; listed as Homo sapiens) [compound 108]
48 | +++ (50%-75% = +++) | 134 (GLAVPTPSV; listed as Homo sapiens) [compound 134]
49 | ++ (20%-49% = ++) | 22 (FVDPNTQEKV; listed as Homo sapiens) [compound 22]
50 | +++ (50%-75% = +++) | 156 (ILGDLSHLL; listed as Homo sapiens) [compound 156]

Row | Peptide exchange | Substance
51 | +++ (50%-75% = +++) | 130 (SLLGGTFVGI; listed as Homo sapiens) [compound 130]
52 | +++ (50%-75% = +++) | 103 (YLVSEIFKA; listed as Homo sapiens) [compound 103]
53 | ++ (20%-49% = ++) | 113 (FLERGLESA; listed as Homo sapiens) [compound 113]
54 | ++ (20%-49% = ++) | 238 (GLYERPTAA; listed as Homo sapiens) [compound 238]
55 | +++ (50%-75% = +++) | 81 (NALDKVLSV; listed as Homo sapiens) [compound 81]
56 | +++ (50%-75% = +++) | 104 (ALISWQPPRA; listed as Homo sapiens) [compound 104]
57 | ++ (20%-49% = ++) | 242 (WLYGEDHQI; listed as Homo sapiens) [compound 242]
58 | ++ (20%-49% = ++) | 124 (KVMATIEKV; listed as Homo sapiens) [compound 124]
59 | +++ (50%-75% = +++) | 119 (FIIQGLRSVGA; listed as Homo sapiens) [compound 119]
60 | +++ (50%-75% = +++) | 55 (SLATKIVEA; listed as Homo sapiens) [compound 55]
61 | ++ (20%-49% = ++) | 88 (AQADHLPQL; listed as Homo sapiens) [compound 88]
62 | ++++ (≧75% = ++++) | 257 (GLYTDPCGV; listed as Homo sapiens) [compound 257]
63 | +++ (50%-75% = +++) | 106 (FINDSIVYL; listed as Homo sapiens) [compound 106]
64 | ++ (20%-49% = ++) | 79 (VTFKEYVTV; listed as Homo sapiens) [compound 79]
65 | ++ (20%-49% = ++) | 30 (AMIEEVFEA; listed as Homo sapiens) [compound 30]
66 | ++ (20%-49% = ++) | 80 (KLYEADFVL; listed as Homo sapiens) [compound 80]
67 | ++ (20%-49% = ++) | 73 (YTLREVDTV; listed as Homo sapiens) [compound 73]
68 | ++ (20%-49% = ++) | 46 (SQFPLPLAV; listed as Homo sapiens) [compound 46]
69 | +++ (50%-75% = +++) | 66 (KLIFSVEAV; listed as Homo sapiens) [compound 66]
70 | +++ (50%-75% = +++) | 117 (KMPDVELFV; listed as Homo sapiens) [compound 117]
71 | +++ (50%-75% = +++) | 255 (SLLHFTENL; listed as Homo sapiens) [compound 255]
72 | ++ (20%-49% = ++) | 64 (SLFPDSLIV; listed as Homo sapiens) [compound 64]
73 | ++++ (≧75% = ++++) | 153 (FISERVEVV; listed as Homo sapiens) [compound 153]
